# From ChEMBL document CHEMBL1926642, “Relevance of the C-5 position to schweinfurthin induced cytotoxicity” (2011)
# Tests used:
# Assay type in all cases: functional
# SNB-19 = test: Growth inhibition of human SNB19 cells after 48 hrs by sulforhodamine B assay; details: SNB-19, 48 h
# RXF 393 = test: Growth inhibition of human RXF393 cells after 48 hrs by sulforhodamine B assay; details: RXF 393, 48 h
# A549 = test: Growth inhibition of human A549 cells after 48 hrs by sulforhodamine B assay; details: A549, 48 h
# SNB-75 = test: Growth inhibition of human SNB75 cells after 48 hrs by sulforhodamine B assay; details: SNB-75, 48 h
# SW-620 = test: Growth inhibition of human SW620 cells after 48 hrs by sulforhodamine B assay; details: SW-620, 48 h
# UACC-257 = test: Growth inhibition of human UACC257 cells after 48 hrs by sulforhodamine B assay; details: UACC-257, 48 h
# MCF7 = test: Growth inhibition of human MCF7 cells after 48 hrs by sulforhodamine B assay; details: MCF7, 48 h
# A498 = test: Growth inhibition of human A498 cells after 48 hrs by sulforhodamine B assay; details: A498, 48 h
# MDA-MB-435 = test: Growth inhibition of human MDA-MB-435 cells after 48 hrs by sulforhodamine B assay; details: MDA-MB-435, 48 h
# 786-0 = test: Growth inhibition of human 786-0 cells after 48 hrs by sulforhodamine B assay; details: 786-0, 48 h
# MDA-MB-468 = test: Growth inhibition of human MDA-MB-468 cells after 48 hrs by sulforhodamine B assay; details: MDA-MB-468, 48 h
# NCI-H522 = test: Growth inhibition of human NCI-H522 cells after 48 hrs by sulforhodamine B assay; details: NCI-H522, 48 h
# PC-3 = test: Growth inhibition of human PC3 cells after 48 hrs by sulforhodamine B assay; details: PC-3, 48 h
# HT-29 = test: Growth inhibition of human HT-29 cells after 48 hrs by sulforhodamine B assay; details: HT-29, 48 h
# NCI/ADR-RES = test: Growth inhibition of human NCI/ADR-RES cells after 48 hrs by sulforhodamine B assay
# SF-539 = test: Growth inhibition of human SF539 cells after 48 hrs by sulforhodamine B assay; details: SF-539, 48 h
# M14 = test: Growth inhibition of human M14 cells after 48 hrs by sulforhodamine B assay; details: M14, 48 h
# SR = test: Growth inhibition of human SR cells after 48 hrs by sulforhodamine B assay
# Malme-3M = test: Growth inhibition of human MALME-3M cells after 48 hrs by sulforhodamine B assay
# COLO 205 = test: Growth inhibition of human COLO205 cells after 48 hrs by sulforhodamine B assay; details: COLO 205, 48 h
# ACHN = test: Growth inhibition of human ACHN cells after 48 hrs by sulforhodamine B assay
# UACC-62 = test: Growth inhibition of human UACC62 cells after 48 hrs by sulforhodamine B assay; details: UACC-62, 48 h
# BT-549 = test: Growth inhibition of human BT549 cells after 48 hrs by sulforhodamine B assay; details: BT-549, 48 h
# LOX IMVI = test: Growth inhibition of human LOXIMVI cells after 48 hrs by sulforhodamine B assay
# DU-145 = test: Growth inhibition of human DU145 cells after 48 hrs by sulforhodamine B assay; details: DU-145, 48 h
# SK-MEL-28 = test: Growth inhibition of human SK-MEL-28 cells after 48 hrs by sulforhodamine B assay; details: SK-MEL-28, 48 h
# SF-268 = test: Growth inhibition of human SF268 cells after 48 hrs by sulforhodamine B assay; details: SF-268, 48 h
# [1] = read-out: pLC50 (the source's name) (converted)
structure (smiles),measurement,setting,value
COc1cc(/C=C/c2cc3c(c(SC)c2)O[C@]2(C)CC[C@@H](O)C(C)(C)[C@H]2C3)cc(O)c1C/C=C(\C)CCC=C(C)C,GI50,SNB-19,28.2 µM
same,LC50,SNB-19,> 100 µM
same,TGI,SNB-19; read-out: pTGI (converted),> 100 µM
same,GI50,RXF 393,1.55 µM
same,LC50 (50% lethal concentration),RXF 393,17.8 µM
same,TGI,RXF 393; read-out: pTGI (converted),4.47 µM
same,LC50,A549,> 100 µM
same,GI50,A549; read-out: GI50,6.03 µM
same,GI50,A549; read-out: pGI50 (converted),6.03 µM
same,TGI,A549; read-out: pTGI (converted),52.5 µM
same,GI50,SNB-75,3.8 µM
same,LC50,SNB-75,> 100 µM
same,TGI,SNB-75; read-out: pTGI (converted),33.1 µM
same,GI50,SW-620,6.76 µM
same,LC50,SW-620,50.1 µM
same,TGI,SW-620; read-out: pTGI (converted),20.9 µM
same,GI50,UACC-257,14.5 µM
same,LC50,UACC-257,> 100 µM
same,TGI,UACC-257; read-out: pTGI (converted),64.6 µM
same,GI50,MCF7,7.76 µM
same,LC50,MCF7,> 100 µM
same,TGI,MCF7; read-out: pTGI (converted),45.7 µM
same,GI50,A498,4.57 µM
same,LC50,A498,67.6 µM
same,TGI,A498; read-out: pTGI (converted),22.4 µM
same,GI50,MDA-MB-435,12.9 µM
same,LC50,MDA-MB-435,> 100 µM
same,TGI,MDA-MB-435; read-out: pTGI (converted),74.1 µM
same,GI50,786-0,5.01 µM
same,CC50,786-0; [1],67.6 µM
same,TGI,786-0; read-out: pTGI (converted),21.4 µM
same,GI50,MDA-MB-468,4.57 µM
same,LC50,MDA-MB-468,87.1 µM
same,TGI,MDA-MB-468; read-out: pTGI (converted),20 µM
same,GI50,NCI-H522,12 µM
same,LC50,NCI-H522,93.3 µM
same,TGI,NCI-H522; read-out: pTGI (converted),33.1 µM
same,GI50,PC-3,6.03 µM
same,CC50,PC-3; [1],> 100 µM
same,TGI,PC-3; read-out: pTGI (converted),51.3 µM
same,GI50,HT-29,2.09 µM
same,LC50 (concentration killing 50% of cells),HT-29,> 100 µM
same,TGI,HT-29; read-out: pTGI (converted),16.2 µM
same,GI50,NCI/ADR-RES,11 µM
same,LC50,NCI/ADR-RES,> 100 µM
same,TGI,NCI/ADR-RES; read-out: pTGI (converted),38 µM
same,GI50,SF-539,3.98 µM
same,LC50,SF-539,> 100 µM
same,TGI,SF-539; read-out: pTGI (converted),41.7 µM
same,GI50,M14,8.13 µM
same,LC50,M14,95.5 µM
same,TGI,M14; read-out: pTGI (converted),28.8 µM
same,GI50,SR,3.8 µM
same,LC50,SR,> 100 µM
same,TGI,SR; read-out: pTGI (converted),> 100 µM
same,GI50,Malme-3M,30.9 µM
same,LC50,Malme-3M,> 100 µM
same,TGI,Malme-3M; read-out: pTGI (converted),> 100 µM
same,GI50,COLO 205,1.35 µM
same,LC50,COLO 205,7.08 µM
same,TGI,COLO 205; read-out: pTGI (converted),3.09 µM
same,GI50,ACHN,10.7 µM
same,LC50,ACHN,> 100 µM
same,TGI,ACHN; read-out: pTGI (converted),> 100 µM
same,GI50,UACC-62,7.08 µM
same,LC50 (50% lethal concentration),UACC-62,> 100 µM
same,TGI,UACC-62; read-out: pTGI (converted),28.8 µM
same,GI50,BT-549,18.6 µM
same,LC50,BT-549,> 100 µM
same,TGI,BT-549; read-out: pTGI (converted),> 100 µM
same,GI50,LOX IMVI,4.37 µM
same,LC50,LOX IMVI,47.9 µM
same,TGI,LOX IMVI; read-out: pTGI (converted),13.2 µM
same,GI50,DU-145,8.71 µM
same,LC50,DU-145,93.3 µM
same,TGI,DU-145; read-out: pTGI (converted),29.5 µM
same,GI50,SK-MEL-28,12.3 µM
same,CC50,SK-MEL-28; [1],> 100 µM
same,TGI,SK-MEL-28; read-out: pTGI (converted),34.7 µM
same,GI50,SF-268,7.41 µM
same,LC50,SF-268,> 100 µM
same,TGI,SF-268; read-out: pTGI (converted),61.7 µM
